Ends that are not written are not given here.
Legend:
[1] = system: human erythrocytes; test: Toxicity Test 1: hemolytic test using erythrocytes; format: cell-based; settings: peptides 0.325-100 μM, FIG. 3
Method: A final concentration of the peptides was adjusted in a range of 0.325-100 μM, and the test was done using human erythrocytes in accordance with Nikawa H, Fukushima H, Makihira S, Hamada T, Samaranayake L P. Fungicidal effect of three new synthetic cationic peptides against Candida albicans. Oral Dis. 2004 July; 10(4): 221-8.

[2] = system: Candida; settings: cited from earlier work
[3] = system: C. albicans; test: Antifungal Test 1: survival of Candida by colony count after incubation with peptide; format: cell-based; settings: for concentration showing a lethal ratio of 100%: Candida strain from oral cavity of a patient, 90 min at 37° C., colony count after 48 h
Method: The antifungal action against Candida was examined in order to confirm the antifungal effect of the present peptide. The peptide was synthesized by a conventional amino acid synthesis method using a peptide synthesizer manufactured by Shimazu Co. of Japan. The strain of Candida was isolated and provided from oral cavity of a patient in Glasgowden Hospital. The antifungal effect of the present peptide was evaluated using the above Candida strain according to the method of Edgerton et al (1998). Twenty μl of the suspension of C. albicans (1.8×10^5 cfu/mL) was mixed with the same amount of a peptide solution (0.325 μM-25 μM of the peptide concentration) and incubated for 90 min at 37° C. The reaction was stopped by adding Yeast Nitrogen Base medium. The resulting mixture was spread onto Sabouraud dextrose agar plate and incubated for 48 h at 37° C. The number of living strains was determined by colony count and survival percentage (%) was calculated in comparison with the number of colony (100%) obtained using 1 mM phosphate buffer as a control instead of the peptide solution.
The antifungal effect (∘) of the present peptide (JH8194Y) is compared with that of JH8194 (*) , His5:Histatin 5 ([…]:♦)(SEQ ID NO: 6), LFG: Bovine lactoferrin ([…]: ▪)fSEQ ID NO: 7), LFB frag (FKCRRWQWRMKKLG:▴)(SEQ ID NO: 8), and Dhvar 4: Histatin analog developed by Holland ACTA (KRLFKKLLFSLRKY: x)(SEQ ID NO: 9). The ordinate and abscissa axes of FIG. 1 indicate percentage survived of Candida, and the concentration of peptide, respectively.

Compound	concentration eliciting hemolysis [1] [µM]	Minimal Fungicidal Concentration [2] [µM]	concentration showing a lethal ratio of 100% [3] [µM]	antifungal effect (comparison in words) ([3]; FIG. 1)
C[C@@H]1[C@H](O)[C@@H](C)/C=C/C=C/C=C/C=C/C=C/C=C/C=C/[C@H](O[C@@H]2O[C@H](C)[C@@H](O)[C@H](N)[C@@H]2O)C[C@@H]2O[C@](O)(C[C@@H](O)C[C@@H](O)[C@H](O)CC[C@@H](O)C[C@@H](O)CC(=O)O[C@H]1C)C[C@H](O)[C@H]2C(=O)O [amphotericin B]	≥ 5	5	–	–
DSHEKRHHGYKRKFHEKHHSHRGY (Synthetic peptide Histatin 5) [basic antifungal peptide of the Histatin family existing in saliva]	–	–	> 50	–
KRLFRRWQWRMKKY	–	–	2.5	much stronger antifungal effect than lactoferrin and lactoferrin B
KRLFRRWQWRY	–	–	1.25	–

Reference: US8026207B2, “Peptides and compositions for inhibiting fungal growth” (Japan Science and Technology Agency, priority 2005, dated 2011)
